Test results published in US20100120715A1, “BETA-LACTAMASE INHIBITORS” (priority 2007, published 2010).
Where two headings read alike, the source gives them in different places.

Assays:
[1] = tested on: E. coli expressing the Class A ESBL SHV-5; assay: microbe, parasite or virus in culture; format: cell-based; details: for MIC of example compound, E. coli SHV-5 + 8 μg/mL CAZ: in the presence of fixed 8 μg/mL Ceftazidime
[2] = tested on: E. cloacae expressing the Class C P99+ AmpC; assay: microbe, parasite or virus in culture; format: cell-based; details: for MIC of example compound, E. cloacae P99 AmpC + 8 μg/mL CAZ: in the presence of fixed 8 μg/mL Ceftazidime
Outline: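 Broth microdilution potentiation assay in cation-adjusted Mueller Hinton broth: compound was titrated 8 to 0.015 μg/mL final against a fixed 8 μg/ml cephalosporin. Strains were pre-grown 3-5 h with 50 μg/mL ampicillin and inoculated per CLSI. MIC was read visually after 16-20 h at 37° C.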

[3] = molecular target: T1, Class A carbapenemase KPC-2 (Klebsiella pneumoniae, UniProt Q9F663); assay: β-lactamase enzyme inhibition (nitrocefin hydrolysis), KPC-2; format: biochemical; details: purified enzyme; nitrocefin 100 μM, PBS pH 7.0; read-out: KPC-2 IC50 Range
T1 construct: made in house; host or cells: E. coli BL21(DE3)
Outline: (§1)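 Native untagged enzymes were expressed in E. coli BL21(DE3) and purified by cation exchange and gel filtration. Compound series (100–0.005 μM in PBS pH 7.0, before addition of an equal enzyme volume) were preincubated with enzyme 10 min at 37°C. Nitrocefin (100 μM final) hydrolysis was read kinetically at 486 nm for 10 min, and IC50 was taken as 50% reduction of initial rate versus no-inhibitor wells.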

[4] = molecular target: T2, Class C P99 AmpC (Enterobacter cloacae, UniProt P05364); format: biochemical; details: purified enzyme; nitrocefin 100 μM, PBS pH 7.0; read-out: P99 AmpC IC50 Range
T2 construct: made in house; host or cells: E. coli BL21(DE3)
Outline: as §1

[5] = tested on: K. pneumoniae expressing the Class A ESBL CTX-M-15; assay: microbe, parasite or virus in culture; format: cell-based; details: for MIC of example compound, K. pneumoniae CTX-M-15 + 8 μg/mL CAZ: in the presence of fixed 8 μg/mL Ceftazidime
[6] = molecular target: T3, Class A ESBL CTXM-15 (Escherichia coli, UniProt Q9EXV5); assay: β-lactamase enzyme inhibition (nitrocefin hydrolysis), CTXM-15; format: biochemical; details: purified enzyme; nitrocefin 100 μM, PBS pH 7.0; read-out: CTXM-15 IC50 Range
T3 construct: made in house; host or cells: E. coli BL21(DE3)
Outline: as §1

[7] = molecular target: T4, Class A ESBL SHV-5 (Klebsiella pneumoniae, UniProt P0A3M1); format: biochemical, E. coli; details: nitrocefin 100 μM, PBS pH 7.0, read-out: SHV-5 IC50 Range
T4 construct: made in house; host or cells: E. coli BL21(DE3) for purified enzyme; E. coli cells containing SHV-5 for extracts

[8] = tested on: K. pneumoniae expressing the Class A carbapenemase KPC-2; assay: microbe, parasite or virus in culture; details: for MIC of example compound, K. pneumoniae KPC-2 + 8 μg/mL CAZ: in the presence of fixed 8 μg/mL Ceftazidime
[9] = cellular extracts of E. coli containing SHV-5 (Examples 2-30)
[10] = purified beta-lactamase enzyme (Examples 1 and 31-64)
[11] = Klebsiella pneumoniae, read-out: MIC alone

T2 sequence (P05364 21-381): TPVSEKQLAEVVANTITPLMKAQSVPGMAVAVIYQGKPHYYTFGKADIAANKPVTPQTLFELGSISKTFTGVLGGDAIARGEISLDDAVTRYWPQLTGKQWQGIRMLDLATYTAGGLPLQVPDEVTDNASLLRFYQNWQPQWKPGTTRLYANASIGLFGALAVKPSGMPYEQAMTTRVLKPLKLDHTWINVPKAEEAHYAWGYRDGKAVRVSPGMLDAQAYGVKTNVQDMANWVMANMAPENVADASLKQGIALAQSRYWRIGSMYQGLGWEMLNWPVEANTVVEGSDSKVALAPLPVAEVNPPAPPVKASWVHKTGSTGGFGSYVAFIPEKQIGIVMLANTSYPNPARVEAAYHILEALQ
T3 sequence (Q9EXV5 entry or part of it): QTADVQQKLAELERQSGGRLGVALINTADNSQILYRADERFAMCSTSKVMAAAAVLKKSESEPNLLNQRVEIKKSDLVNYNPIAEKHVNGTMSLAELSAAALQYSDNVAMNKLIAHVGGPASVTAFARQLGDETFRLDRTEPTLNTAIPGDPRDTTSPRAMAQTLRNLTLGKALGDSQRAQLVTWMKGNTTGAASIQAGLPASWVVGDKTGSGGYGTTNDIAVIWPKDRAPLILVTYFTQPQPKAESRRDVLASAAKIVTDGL
T1 sequence (Q9F663 25-293 limits assumed): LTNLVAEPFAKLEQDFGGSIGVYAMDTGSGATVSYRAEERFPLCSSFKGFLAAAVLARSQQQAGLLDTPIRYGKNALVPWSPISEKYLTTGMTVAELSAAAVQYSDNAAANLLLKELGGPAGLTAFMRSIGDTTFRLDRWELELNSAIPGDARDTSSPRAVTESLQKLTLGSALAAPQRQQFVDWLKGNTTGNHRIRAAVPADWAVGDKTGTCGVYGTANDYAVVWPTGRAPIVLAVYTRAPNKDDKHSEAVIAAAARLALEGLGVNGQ
T4 sequence (P0A3M1 22-286): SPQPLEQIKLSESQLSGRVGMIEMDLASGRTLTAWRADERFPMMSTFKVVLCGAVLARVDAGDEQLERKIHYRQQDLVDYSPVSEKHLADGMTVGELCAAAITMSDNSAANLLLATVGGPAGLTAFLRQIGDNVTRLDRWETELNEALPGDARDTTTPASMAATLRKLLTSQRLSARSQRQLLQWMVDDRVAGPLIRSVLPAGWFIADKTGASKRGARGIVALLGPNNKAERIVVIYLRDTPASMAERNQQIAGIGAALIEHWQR

SMILES	MIC of example compound, E. coli SHV-5 + 8 μg/mL CAZ [1]	MIC of example compound, E. cloacae P99 AmpC + 8 μg/mL CAZ [2]	IC50 [3]	IC50 [4]	MIC of example compound, K. pneumoniae CTX-M-15 + 8 μg/mL CAZ [5]	IC50 [6]	IC50 [7, 9]	MIC of example compound, K. pneumoniae KPC-2 + 8 μg/mL CAZ [8]	IC50 [7, 10]	MIC ([1]; Escherichia coli, read-out: MIC alone)	MIC ([2]; Enterobacter cloacae, read-out: MIC alone)	MIC [8, 11]	MIC [5, 11]
COc1ccc(OC)c(CC(=O)N[C@@H](Cc2cccc(C(=O)O)c2O)B(O)O)c1 [Example 17, (1R)-1-(2-(2,5-dimethoxyphenyl)-acetylamino)-2-(2-hydroxy-3-carboxyphenyl)ethyl-1-boronic acid]	A (A represents an MIC >8 μg/mL)	C (C represents an MIC of <1 μg/mL)	< 10 nM	< 10 nM	C (C represents an MIC of <1 μg/mL)	< 10 nM	< 10 nM						
NCC(=O)N[C@@H](Cc1cccc(C(=O)O)c1O)B(O)O.O=CO [Example 41, (1R)-1-(2-aminoacetylamino)-2-(2-hydroxy-3-carboxyphenyl)ethyl-1-boronic acid formate salt]	A (A represents an MIC >8 μg/mL)	A (A represents an MIC >8 μg/mL)	10 to 100 nM	> 1000 nM	A (A represents an MIC >8 μg/mL)	100 to 1000 nM		C (C represents an MIC of <1 μg/mL)	> 1000 nM				
O=C(N[C@@H](Cc1cccc(C(=O)O)c1O)B(O)O)c1ccno1 [Example 46, (1R)-1-(isoxazole-5-carbonyl-amino)-2-(2-hydroxy-3-carboxyphenyl)ethyl-1-boronic acid]		C (C represents an MIC of <1 μg/mL)	10 to 100 nM	< 10 nM	C (C represents an MIC of <1 μg/mL)	< 10 nM		C (C represents an MIC of <1 μg/mL)	< 10 nM				
O=C(N[C@@H](Cc1cccc(C(=O)O)c1O)B(O)O)c1ccc(F)cc1 [Example 26, (1R)-1-(4-Fluorobenzoylamino)-(3-carboxy-2-hydroxy)benzyl-methylboronic acid]		C (C represents an MIC of <1 μg/mL)	< 10 nM	< 10 nM	C (C represents an MIC of <1 μg/mL)	< 10 nM	10 to 100 nM	C (C represents an MIC of <1 μg/mL)					
Cl.NCCOc1cccc(CC(=O)N[C@@H](Cc2cccc(C(=O)O)c2O)B(O)O)c1 [Example 4, (1R)-1-[3-(2-amino)-ethoxy-phenyl]acetylamino-1-(3-carboxy-2-hydroxy)benzyl-methylboronic acid hydrochloride]	C (C represents an MIC of <1 μg/mL)	C (C represents an MIC of <1 μg/mL)		< 10 nM	C (C represents an MIC of <1 μg/mL)	< 10 nM	< 10 nM	C (C represents an MIC of <1 μg/mL)					
O=C(N[C@@H](Cc1cccc(C(=O)O)c1O)B(O)O)c1ccccc1 [Example 13, (1R)-1-Benzoylamino-1-(3-carboxy-2-hydroxy)benzyl-methylboronic acid]		C (C represents an MIC of <1 μg/mL)	< 10 nM	< 10 nM	C (C represents an MIC of <1 μg/mL)	10 to 100 nM	10 to 100 nM	C (C represents an MIC of <1 μg/mL)					
O=C(N[C@@H](Cc1cccc(C(=O)O)c1O)B(O)O)c1cnc2ccccc2n1 [Example 54, (1R)-1-(Quinoxaline-2-carbonyl-amino)-2-(2-hydroxy-3-carboxyphenyl)ethyl-1-boronic acid]	A (A represents an MIC >8 μg/mL)	A (A represents an MIC >8 μg/mL)	< 10 nM	< 10 nM	A (A represents an MIC >8 μg/mL)	< 10 nM			10 to 100 nM				
O=C(N[C@@H](Cc1cccc(C(=O)O)c1O)B(O)O)c1cn2ccsc2n1 [Example 56, (1R)-1-(Imidazo[2,1-b]thiazole-6-carbonyl-amino)-2-(2-hydroxy-3-carboxyphenyl)ethyl-1-boronic acid]	A (A represents an MIC >8 μg/mL)	A (A represents an MIC >8 μg/mL)	100 to 1000 nM	100 to 1000 nM	A (A represents an MIC >8 μg/mL)	10 to 100 nM			10 to 100 nM				
Cl.O=C(Cc1ccncc1)N[C@@H](Cc1cccc(C(=O)O)c1O)B(O)O [Example 52, (1R)-1-(4-Pyridylacetylamino)-2-(2-hydroxy-3-carboxyphenyl)ethyl-1-boronic acid hydrochloride]	C (C represents an MIC of <1 μg/mL)	C (C represents an MIC of <1 μg/mL)	< 10 nM	< 10 nM	C (C represents an MIC of <1 μg/mL)	< 10 nM		C (C represents an MIC of <1 μg/mL)	< 10 nM				
O=C(N[C@@H](Cc1cccc(C(=O)O)c1O)B(O)O)c1ccc(O)cc1 [Example 36, (1R)-1-(4-Hydroxybenzoyl)-amino-1-(3-carboxy-2-hydroxy)benzyl-methylboronic acid]		C (C represents an MIC of <1 μg/mL)	< 10 nM	< 10 nM	C (C represents an MIC of <1 μg/mL)	< 10 nM		C (C represents an MIC of <1 μg/mL)	100 to 1000 nM				
CC(=O)NCC(=O)N[C@@H](Cc1cccc(C(=O)O)c1O)B(O)O [Example 37, (1R)-1-(2-acetamidoacetylamino)-2-(2-hydroxy-3-carboxyphenyl)ethyl-1-boronic acid]		C (C represents an MIC of <1 μg/mL)	10 to 100 nM	10 to 100 nM	C (C represents an MIC of <1 μg/mL)	10 to 100 nM		C (C represents an MIC of <1 μg/mL)	10 to 100 nM				
CC(=O)N1CCC(C(=O)N[C@@H](Cc2cccc(C(=O)O)c2O)B(O)O)CC1 [Example 49, (1R)-1-(1-Acetyl-piperidine-4-carbonyl)-amino-1-(3-carboxy-2-hydroxy)benzyl-methylboronic acid]		C (C represents an MIC of <1 μg/mL)	< 10 nM	10 to 100 nM	C (C represents an MIC of <1 μg/mL)	10 to 100 nM		C (C represents an MIC of <1 μg/mL)	100 to 1000 nM				
O=C(Cc1ccccc1)N[C@@H](Cc1cccc(C(=O)O)c1O)B(O)O [Example 10, (1R)-1-(2-phenylacetylamino)-2-(2-hydroxy-3-carboxyphenyl)ethyl-1-boronic acid]	C (C represents an MIC of <1 μg/mL)	C (C represents an MIC of <1 μg/mL)		< 10 nM	C (C represents an MIC of <1 μg/mL)	< 10 nM	< 10 nM	C (C represents an MIC of <1 μg/mL)					
CCCCC(=O)N[C@@H](Cc1cccc(C(=O)O)c1O)B(O)O [Example 23, (1R)-1-(pentanoylamino)-2-(2-hydroxy-3-carboxyphenyl)ethyl-1-boronic acid]	C (C represents an MIC of <1 μg/mL)	C (C represents an MIC of <1 μg/mL)	< 10 nM	10 to 100 nM	C (C represents an MIC of <1 μg/mL)	< 10 nM	10 to 100 nM	C (C represents an MIC of <1 μg/mL)					
CC(C)(O/N=C(\C(=O)N[C@@H]1C(=O)N2C(C(=O)[O-])=C(C[n+]3ccccc3)CS[C@H]12)c1csc(N)n1)C(=O)O [Ceftazidime, reference compound]										> 1020 µg/mL	128 µg/mL	32 µg/mL	128 µg/mL
